Measurements reported in US10117854B2, “Method for treating hepatic encephalopathy” (MEDDAY PHARMACEUTICALS, priority 2016, dated 2018).
Read-outs that look alike come from different tables or passages of the source.

Columns and labels:
BDL rats [1] = experiment: Open Field Test (behavioral test of hepatic encephalopathy); type: in vivo, rat; conditions: for OpenField test results compared with high-dose biotin: data not shown
Protocol: Bile duct ligation (BDL) was used as a biliary cirrhosis model. All rats oh this group were operated on. They were randomly separated in two groups: BDL or simple laparotomy (SHAM, control-group). The BDL procedure was conducted as described previously (Kountouras J, Prolonged bile duct obstruction: a new experimental model for cirrhosis in the rat; Br J Exp Pathol 1984) and as controlled in our lab. Surgery was done under total anesthesia with […] isofluran (Aerrane, Baxter Maurepas) 3% mixed with air. Analgesia was done by sub-cutaneous injection of buprenorphin 2% (Buprécare 0.3 mg/ml, Axience) immediately before and after surgery. Rifaximin (Sigma Aldrich) was mixed with water at the dose of 50 mg/kg/d and began 3 days after the surgery. […] To assess the hepatic encephalopathy, the Open Field Test (BioSeb) was used, a behavioral test validated in BDL rats to explore neurological impairments (Leke, Plos One 2012; 7(5)). The test was done the day of sacrifice, in standardized experimental conditions (hour, place, light, noise). Each rat was placed in a square 1 m^2 box and was free to explore the arena during 6 minutes. Two areas were defined in the square, center and periphery. Mobility parameters were registered by a three-dimensional camera. The data analyzed after 6 minutes of experiments were: total distance travelled (cm), time of mobility (s), speed (cm/s), number of zone changes, distance travelled in the center and periphery zone, time spent in the center and periphery zone, number of rearing, total duration of rearing.

BDL rats [2] = test system: BDL rats
Protocol: The integrity of BBB was investigated by measuring the extravasation from intra-vascular compartment of dextran-Texas Red (Life Technologies) conjugated.
Six weeks after the surgery, all rats were anesthetized with inhaleted isofluran 3%. 0.75 ml of fluorochrome was injected in the femoral vein (Texas Red 10 kDa 10 mg/ml) and circulated during 6 minutes. […] To remove the intravascular localized dye, we did a large thoracotomy to perfuse 300 ml of cold PBS (40 ml/min with a peristaltic pump) through the left cardiac ventricle.
After decapitation, the brain was rapidly removed and the olfactory bulbs and brain stem eliminated with the cerebellum.
After grinding the right hemisphere by vigorously shaking and centrifugation, the amount of fluorescent dextran (μg/g) in supernatants was measured by fluorimetry (Tecan Infinite M200) at 620 nm upon excitation at 588 nm. The content of dye was valued by interpolation in standard curve.

[3] = test system: rats, acute liver failure induced by single high dose of CCl4; conditions: prior art; biotin 0.5 mg/kg BW single intraperitoneal injection, or oral with uncontrolled amount; cited from earlier work
BDL rats [4] = experiment: Blood ammoniemia in bile duct ligated rats; type: in vivo, rat; conditions: biotin 300 mg/kg of food (30 mg/kg BW/day), ANOVA p=0.01, FIG. 6
Protocol: Adult male Wistar rats (weight 175-200 g at the initiation of the surgical procedure) were obtained from the Janvier labs (Le Gesnest-Saint-Isle) and were used for the whole experiments.
Bile duct ligation (BDL) was used as a biliary cirrhosis model. All rats oh this group were operated on. They were randomly separated in two groups: BDL or simple laparotomy (SHAM, control-group). The BDL procedure was conducted as described previously (Kountouras J, Prolonged bile duct obstruction: a new experimental model for cirrhosis in the rat; Br J Exp Pathol 1984) and as controlled in our lab. Surgery was done under total anesthesia with inhalated isofluran (Aerrane, Baxter Maurepas) 3% mixed with air. Analgesia was done by sub-cutaneous injection of buprenorphin 2% (Buprécare 0.3 mg/ml, Axience) immediately before and after surgery.
(§1) The blood sample taken during the sacrifice was centrifuged and the plasma was used to determine the levels of hepatic transaminases, total and conjugated bilirubin and ammonia. Plasmatic cytokines (IL6, TNFa, IFNg) were determined by a multiplex commercial kit.

[5] = in vivo; cited from earlier work
IFNγ = experiment: Plasmatic cytokines by multiplex kit; type: in vivo, rat; conditions: BDL rats treated with biotin (300 mg/kg food)
Protocol: as §1

O=C(O)CCCC[C@@H]1SC[C@@H]2NC(=O)N[C@@H]21 [biotin]
neurological impairements observed in the OpenField test (BDL rats [1]; biotin 50 mg/kg of food (5 mg/kg of animal/day)): not high enough to have an effect
neurological impairements observed in the OpenField test (BDL rats [1]; biotin 300 mg/kg of food (30 mg/kg of animal/day), vs BDL rats without biotin): reduced
neurological impairements observed in the OpenField test (BDL rats [1]; biotin 300 mg/kg of food (30 mg/kg of animal/day), vs BDL rats without biotin, listed as Biotin): comportmental improvement
intra-cerebral quantity of dextran (BBB permeability) (BDL rats [2]; BDL rats, biotin 300 mg/kg of food, vs BDL rats on control diet): normalize
intra-cerebral quantity of dextran (BBB permeability) (BDL rats [2]; BDL rats, biotin 300 mg/kg of food, vs BDL rats on control diet, listed as Biotin): normalization of BBB permeability
intra-cerebral quantity of dextran (BBB permeability) (BDL rats [2]; biotin 50 mg/kg of food): did not reach normalization
serum ammonium level [3]: decrease the serum ammonium level
hyperammonemia (blood ammoniemia) (BDL rats [4]): reduce hyperammonemia
plasma half life [5]: about 2 hours
IFNγ levels in plasma (IFNγ): decreased

CO[C@H]1/C=C/O[C@@]2(C)Oc3c(C)c(O)c4c(O)c(c5c(nc6cc(C)ccn65)c4c3C2=O)NC(=O)/C(C)=C\C=C\[C@H](C)[C@H](O)[C@@H](C)[C@@H](O)[C@@H](C)[C@H](OC(C)=O)[C@@H]1C [rifaximin, Rifaximin]
OpenField test results compared with high-dose biotin (BDL rats [1]; rifaximin 50 mg/kg/d in water): similar

O=C([O-])c1ccccc1.[Na+] [sodium benzoate, Sodium benzoate]
OpenField test results compared with high-dose biotin (BDL rats [1]; sodium benzoate 200 mg/kg/d in water): similar
